17 compounds from patent US11066392B2, “Inhibitors of indoleamine 2,3-dioxygenase and methods of their use” (BRISTOL-MYERS SQUIBB COMPANY, priority 2017, dated 2021) can be followed below.

Like-named read-outs stand apart in the source and are kept apart here. Where only a bound is given, the exact number is not on record here.

The target of one test is T1, human IDO1 (Homo sapiens, UniProt P14902).
T1 construct: expressed in transfected cells
Nature of the test: HEK293 cell-based indoleamine 2,3-dioxygenase (IDO) assay. Conditions: human IDO1/HEK293 cells. As to the method:
Assessment of inhibitor activity in HEK293 cell-based indoleamine 2,3-dioxygenase (IDO) assay.
HEK293 cells were transfected with a pCDNA-based mammalian expression vector harboring human IDO1 cDNA (NM 002164.2) by electroporation. They were cultured in medium (DMEM with 10% FBS) containing 1 mg/ml G418 for two weeks. Clones of HEK293 cells that stably expressed human IDO1 protein were selected and expanded for IDO inhibition assay.
The human IDO1/HEK293 cells were seeded at 10,000 cells per 50 μL per well with RPMI/phenol red free media contains 10% FBS in a 384-well black wall clear bottom tissue culture plate (Matrix Technologies LLC) 100 nL of certain concentration of compound was then added to each well using ECHO liquid handling systems. The cells were incubated for 20 hours in 37° C. incubator with 5% CO2.
The compound treatments were stopped by adding trichloroacetic acid (Sigma-Aldrich) to a final concentration at 0.2%. The cell plate was further incubated at 50° C. for 30 minute. The equal volume supernatant (20 μL) and 0.2% (w/v) Ehrlich reagent (4-dimethylaminobenzaldehyde, Sigma-Aldrich) in glacial acetic acid were mixed in a new clear bottom 384-well plate. This plate was then incubated at room temperature for 30 minute. The absorbance at 490 nm was measured on Envision plate reader.
Compound IC50 values were calculated using the counts of 500 nM of a reference standard treatment as one hundred percent inhibition, and counts of no compound but DMSO treatment as zero percent inhibition.
Activity for compounds described herein is provided in Table 1, wherein potency levels are provided as follows: (Potency: IDO IC50: A<0.01 μM; B<0.1 μM; C<10 μM)

Test [1] concerns the target indoleamine 2,3-dioxygenase (IDO) (Homo sapiens, UniProt P14902). Nature of the test: HeLa cell-based indoleamine 2,3-dioxygenase (IDO) assay (kynurenine production, IFNγ-stimulated). Particulars: HeLa cells.
Where [2] appears, read: 20 hours incubation, read-out: IDO1 HEK Human IC50.
Setting [3] is: IFNγ 25 ng/mL, 48 hour incubation, read-out: IDO Hela IC50.
Where [4] appears, read: potency class, read-out: Patent Potency Hela IC50 A < 10 nM, B > 10 nM, C > 100 nM.

indoleamine 2,3-dioxygenase (IDO), sequence (P14902 whole entry): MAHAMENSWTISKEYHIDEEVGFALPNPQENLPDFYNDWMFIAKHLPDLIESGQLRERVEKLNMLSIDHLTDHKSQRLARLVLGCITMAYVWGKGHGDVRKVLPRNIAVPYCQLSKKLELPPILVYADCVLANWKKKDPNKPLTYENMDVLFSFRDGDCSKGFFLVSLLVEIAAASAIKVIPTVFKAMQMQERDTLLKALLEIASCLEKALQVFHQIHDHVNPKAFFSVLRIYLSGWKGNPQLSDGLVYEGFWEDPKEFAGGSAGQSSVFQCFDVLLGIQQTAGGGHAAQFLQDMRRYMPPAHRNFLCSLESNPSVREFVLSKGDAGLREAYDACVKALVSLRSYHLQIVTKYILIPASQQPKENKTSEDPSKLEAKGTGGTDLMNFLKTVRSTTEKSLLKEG
T1 sequence (P14902 whole entry): as above

A word on the IC50: it is the concentration needed to halve the response being measured. `CC[C@@H](NC(=O)c1ccc(OC)nc1)[C@H]1CC[C@@H](c2ccnc3ccc(F)cc32)CC1` (single isomer, unassigned) [Example 10d, N-(1-(4-(6-Fluoroquinolin-4-yl)cyclohexyl)propyl)-6-methoxynicotinamide]: the half-maximal inhibitory concentration (IC50) on human IDO1 (setting [2]) was determined as 37 nM. In the case of `C[C@@H](NC(=O)c1ccc(F)nc1)[C@H]1CC[C@@H](c2ccnc3ccc(F)cc32)CC1` [Example 7, 6-Fluoro-N-((R)-1-((1s,4S)-4-(6-fluoroquinolin-4-yl)cyclohexyl)ethyl)nicotinamide], the values for the IC50 (in test [1] (setting [3]); at human IDO1 (setting [2])) were 10 nM and 5 nM, respectively. Consider `COc1ncc(C(=O)N[C@H](C)[C@H]2CC[C@@H](c3ccnc4ccc(F)cc43)CC2)cn1` [Example 8, N-((R)-1-((1s,4S)-4-(6-Fluoroquinolin-4-yl)cyclohexyl)ethyl)-2-methoxypyrimidine-5-carboxamide], for which the IC50 in test [1] (setting [3]) came out at 10 nM; on human IDO1 (setting [2]), 5 nM. As to `C[C@@H](NC(=O)c1ccc(O)nc1)[C@H]1CC[C@@H](c2ccnc3ccc(F)cc32)CC1` [Example 3, N-((R)-1-((1s,4S)-4-(6-Fluoroquinolin-4-yl)cyclohexyl)ethyl)-6-hydroxynicotinamide], the IC50 at human IDO1 (setting [2]) turned out to be 252 nM. Consider `C[C@@H](NC(=O)c1ccc(-n2cccn2)nc1)[C@H]1CC[C@@H](c2ccnc3ccc(F)cc32)CC1` [Example 4, N-((R)-1-((1s,4S)-4-(6-Fluoroquinolin-4-yl)cyclohexyl)ethyl)-6-(1H-pyrazol-1-yl)nicotinamide], for which the values for the IC50 (in test [1] (setting [3]); on human IDO1 (setting [2])) were 10 nM and 11 nM, respectively. Regarding `COCCOc1ccc(-c2ccc(C(=O)N[C@H](C)[C@H]3CC[C@@H](c4ccnc5ccc(F)cc54)CC3)cn2)cc1` [Example 6], the half-maximal inhibitory concentration (IC50) at human IDO1 (setting [2]) stood at 488 nM. Turning to `C[C@@H](NC(=O)c1ccncc1)[C@H]1CC[C@@H](c2ccnc3ccc(F)cc32)CC1` [Example 34, N-((R)-1-((cis)-4-(6-fluoroquinolin-4-yl)cyclohexyl)ethyl)isonicotinamide], the concentration for half-maximal inhibition (IC50) in test [1] (setting [3]) came out at 10 nM; at human IDO1 (setting [2]), 13 nM.

Turning to `CC[C@@H](NC(=O)c1ccc(OC)nc1)[C@H]1CC[C@@H](c2ccnc3ccc(F)cc32)CC1` (single isomer, unassigned) [Example 10c, N-(1-(4-(6-Fluoroquinolin-4-yl)cyclohexyl)propyl)-6-methoxynicotinamide], the concentration for half-maximal inhibition (IC50) at human IDO1 (setting [2]) was determined as 55 nM.

Turning to `C[C@@H](NC(=O)c1ccc(Cl)nc1)[C@H]1CC[C@@H](c2ccnc3ccc(F)cc32)CC1` [Example 5, 6-Chloro-N-((R)-1-((1s,4S)-4-(6-fluoroquinolin-4-yl)cyclohexyl)ethyl)nicotinamide], the IC50 in test [1] (setting [4]) is < 10 nM; on human IDO1 (setting [2]) it was 10 nM.

With `CC[C@@H](NC(=O)c1ccc(OC)nc1)[C@H]1CC[C@@H](c2ccnc3ccc(F)cc32)CC1` (single isomer, unassigned) [Example 10b, N-(1-(4-(6-Fluoroquinolin-4-yl)cyclohexyl)propyl)-6-methoxynicotinamide], the IC50 in test [1] (setting [4]) was < 10 nM; on human IDO1 (potency class, read-out: Patent Potency HEK IC50 A < 10 nM, B > 10 nM, C > 100 nM), < 10 nM. Regarding `C[C@@H](NC(=O)c1cnccn1)[C@H]1CC[C@@H](c2ccnc3ccc(F)cc32)CC1` [Example 35, N-((R)-1-((cis)-4-(6-fluoroquinolin-4-yl)cyclohexyl)ethyl)pyrazine-2-carboxamide], the 50% inhibitory concentration (IC50) turned out to be 10 nM in test [1] (setting [3]) and 22 nM on human IDO1 (setting [2]). With `Cc1ncc(C(=O)N[C@H](C)[C@H]2CC[C@@H](c3ccnc4ccc(F)cc43)CC2)cn1` [Example 9, N-((R)-1-((1s,4S)-4-(6-Fluoroquinolin-4-yl)cyclohexyl)ethyl)-2-methylpyrimidine-5-carboxamide], the IC50 at human IDO1 (setting [2]) is 28 nM. Turning to `COc1ccc(-c2ccc(C(=O)N[C@H](C)[C@H]3CC[C@@H](c4ccnc5ccc(F)cc54)CC3)cn2)cn1` [Example 1, N—((R)-1-((1s,4s)-4-(6-Fluoroquinolin-4-yl)cyclohexyl)ethyl)-6′-methoxy-2,3′-bipyridine-5-carboxamide], the values for the IC50 (in test [1] (setting [3]); at human IDO1 (setting [2])) were 30 nM and 56 nM, respectively. For `C[C@@H](NC(=O)c1cccnc1)[C@H]1CC[C@@H](c2ccnc3ccc(F)cc32)CC1` [Example 33, N—((R)-1-((cis)-4-(6-fluoroquinolin-4-yl)cyclohexyl)ethyl)nicotinamide], in that order: 10 nM and 10 nM. Turning to `C[C@@H](NC(=O)c1cncnc1)[C@H]1CC[C@@H](c2ccnc3ccc(F)cc32)CC1` [Example 36, N-((R)-1-((cis)-4-(6-fluoroquinolin-4-yl)cyclohexyl)ethyl)pyrimidine-5-carboxamide], the IC50 is 30 nM in test [1] (setting [3]) and 39 nM at human IDO1 (setting [2]).

`CC[C@@H](NC(=O)c1ccc(OC)nc1)[C@H]1CC[C@@H](c2ccnc3ccc(F)cc32)CC1` (single isomer, unassigned) [Example 10a, N-(1-(4-(6-Fluoroquinolin-4-yl)cyclohexyl)propyl)-6-methoxynicotinamide]: at human IDO1 (setting [2]), the IC50 came to 224 nM. As to `COc1ccc(C(=O)N[C@H](C)[C@H]2CC[C@@H](c3ccnc4ccc(F)cc43)CC2)cn1` [Example 2, N-((R)-1-((1s,4S)-4-(6-Fluoroquinolin-4-yl)cyclohexyl)ethyl)-6-methoxynicotinamide], the concentration for half-maximal inhibition (IC50) was < 10 nM in test [1] (setting [4]) and 1 nM at human IDO1 (setting [2]).
